Experimental data taken from US20250230193A1, “CYCLIC COMPOUND HAVING SELECTIVE KRAS INHIBITORY EFFECT ON HRAS AND NRAS” (CHUGAI SEIYAKU KABUSHIKI KAISHA, priority 2022, published 2025).

Key:
[1] = molecular target: GDP-bound NRAS wild-type protein (Homo sapiens, UniProt P01111); assay: Binding to NRAS by surface plasmon resonance (SPR), Single Cycle Kinetics; settings: SPR, GDP-bound NRAS wild-type vs GDP-bound KRAS wild-type
[2] = molecular target: GDP-bound HRAS wild-type protein (Homo sapiens, UniProt P01112); assay: Binding to HRAS by surface plasmon resonance (SPR), Single Cycle Kinetics; settings: SPR, GDP-bound HRAS wild-type vs GDP-bound KRAS wild-type
GDP-bound HRAS wild-type protein, sequence (P01112 whole entry): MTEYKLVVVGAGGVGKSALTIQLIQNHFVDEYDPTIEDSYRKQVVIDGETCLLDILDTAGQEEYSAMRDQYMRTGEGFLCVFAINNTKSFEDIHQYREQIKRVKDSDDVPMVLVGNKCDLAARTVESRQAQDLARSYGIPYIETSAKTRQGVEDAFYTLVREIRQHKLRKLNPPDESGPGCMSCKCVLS

GDP-bound NRAS wild-type protein, sequence (P01111 whole entry): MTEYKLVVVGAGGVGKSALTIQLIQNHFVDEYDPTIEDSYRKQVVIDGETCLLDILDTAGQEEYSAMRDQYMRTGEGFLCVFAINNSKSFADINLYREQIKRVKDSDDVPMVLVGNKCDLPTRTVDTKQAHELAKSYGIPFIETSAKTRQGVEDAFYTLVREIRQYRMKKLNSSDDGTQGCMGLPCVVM

## CCO[C@@H]1C[C@H]2C(=O)NC3(CC(C)(C)C3)C(=O)N(C)[C@@H](C(CC)CC)C(=O)N(C)[C@H](C(=O)N3CCCC3)CC(=O)N(C)[C@@H](COC)C(=O)N[C@@H]([C@@H](C)CC)C(=O)N(C)CC(=O)N(C)[C@H]3C/C=C\CCN(C3=O)[C@@H](Cc3ccc(C(F)(F)F)cc3)C(=O)N(C)CC(=O)N[C@@H](CCc3ccc(C(F)(F)F)c(OC)c3)C(=O)N2C1 [PP2159]
[1]
  NRAS/KRAS (ratio of KD value with respect to NRAS to KD value with respect to KRAS): AA (a compound having 20 or more is denoted as AA)
[2]
  HRAS/KRAS (ratio of KD value with respect to HRAS to KD value with respect to KRAS): A (a compound having 10 or more and less than 20 is denoted as A)

## CCC[C@H]1C(=O)N[C@@H]([C@@H](C)CC)C(=O)N(C)CC(=O)N(C)[C@H]2C/C=C\CCN(C2=O)[C@@H](Cc2ccc(C(F)(F)F)cc2)C(=O)N(C)CC(=O)N[C@@H](CCc2ccc(C(F)(F)F)c(OC)c2)C(=O)N2C[C@H](OCC)C[C@H]2C(=O)NC2(CC(C)(C)C2)C(=O)N(C)[C@@H](C(CC)CC)C(=O)N(C)[C@H](C(=O)N(C)C)CC(=O)N1C [PP2160]
[1]
  NRAS/KRAS (ratio of KD value with respect to NRAS to KD value with respect to KRAS): A (a compound having 10 or more and less than 20 is denoted as A)
[2]
  HRAS/KRAS (ratio of KD value with respect to HRAS to KD value with respect to KRAS): A (a compound having 10 or more and less than 20 is denoted as A)

## CCO[C@@H]1C[C@H]2C(=O)NC3(CC(C)(C)C3)C(=O)N(C)[C@@H](C(CC)CC)C(=O)N(C)[C@H](C(=O)N(C)C)CC(=O)N(C)[C@@H](CC(C)C)C(=O)N[C@@H]([C@@H](C)CC)C(=O)N(C)CC(=O)N(C)[C@H]3C/C=C\CCN(C3=O)[C@@H](Cc3ccc(C(F)(F)F)cc3)C(=O)N(C)CC(=O)N[C@@H](CCc3ccc(C(F)(F)F)c(OC)c3)C(=O)N2C1 [PP2161]
[1]
  NRAS/KRAS (ratio of KD value with respect to NRAS to KD value with respect to KRAS): AA (a compound having 20 or more is denoted as AA)
[2]
  HRAS/KRAS (ratio of KD value with respect to HRAS to KD value with respect to KRAS): A (a compound having 10 or more and less than 20 is denoted as A)

## CCO[C@@H]1C[C@H]2C(=O)NC3(CC(C)(C)C3)C(=O)N(C)[C@@H](C(CC)CC)C(=O)N(C)[C@H](C(=O)N3CCCC3)CC(=O)N(C)[C@@H](C)C(=O)N[C@@H]([C@@H](C)CC)C(=O)N(C)CC(=O)N(C)[C@H]3C/C=C\CCN(C3=O)[C@@H](Cc3ccc(C(F)(F)F)cc3)C(=O)N(C)CC(=O)N[C@@H](CCc3ccc(C(F)(F)F)c(OC)c3)C(=O)N2C1 [PP2163]
[1]
  NRAS/KRAS (ratio of KD value with respect to NRAS to KD value with respect to KRAS): A (a compound having 10 or more and less than 20 is denoted as A)
[2]
  HRAS/KRAS (ratio of KD value with respect to HRAS to KD value with respect to KRAS): A (a compound having 10 or more and less than 20 is denoted as A)

## CCO[C@@H]1C[C@H]2C(=O)NC3(CC(C)(C)C3)C(=O)N(C)[C@@H](C(CC)CC)C(=O)N(C)[C@H](C(=O)N(C)C)CC(=O)N(C)[C@@H](CC3CCC3)C(=O)N[C@@H]([C@@H](C)CC)C(=O)N(C)CC(=O)N(C)[C@H]3C/C=C\CCN(C3=O)[C@@H](Cc3ccc(C(F)(F)F)cc3)C(=O)N(C)CC(=O)N[C@@H](CCc3ccc(C(F)(F)F)c(OC)c3)C(=O)N2C1 [PP2164]
[1]
  NRAS/KRAS (ratio of KD value with respect to NRAS to KD value with respect to KRAS): A (a compound having 10 or more and less than 20 is denoted as A)
[2]
  HRAS/KRAS (ratio of KD value with respect to HRAS to KD value with respect to KRAS): A (a compound having 10 or more and less than 20 is denoted as A)

## CCO[C@@H]1C[C@H]2C(=O)NC3(CC(C)(C)C3)C(=O)N(C)[C@@H](C(CC)CC)C(=O)N(C)[C@H](C(=O)N(C)C)CC(=O)N(C)[C@@H](C(C)C)C(=O)N[C@@H]([C@@H](C)CC)C(=O)N(C)CC(=O)N(C)[C@H]3C/C=C\CCN(C3=O)[C@@H](Cc3ccc(C(F)(F)F)cc3)C(=O)N(C)CC(=O)N[C@@H](CCc3ccc(C(F)(F)F)c(OC)c3)C(=O)N2C1 [PP2165]
[1]
  NRAS/KRAS (ratio of KD value with respect to NRAS to KD value with respect to KRAS): A (a compound having 10 or more and less than 20 is denoted as A)
[2]
  HRAS/KRAS (ratio of KD value with respect to HRAS to KD value with respect to KRAS): A (a compound having 10 or more and less than 20 is denoted as A)

## CCO[C@@H]1C[C@H]2C(=O)NC3(CC(C)(C)C3)C(=O)N(C)[C@@H](C(CC)CC)C(=O)N(C)[C@H](C(=O)N(C)C)CC(=O)N(C)[C@@H](CC3CC3)C(=O)N[C@@H]([C@@H](C)CC)C(=O)N(C)CC(=O)N(C)[C@H]3C/C=C\CCN(C3=O)[C@@H](Cc3ccc(C)cc3)C(=O)N(C)CC(=O)N[C@@H](CCc3ccc(C(F)(F)F)c(OC)c3)C(=O)N2C1 [PP2166]
[1]
  NRAS/KRAS (ratio of KD value with respect to NRAS to KD value with respect to KRAS): A (a compound having 10 or more and less than 20 is denoted as A)
[2]
  HRAS/KRAS (ratio of KD value with respect to HRAS to KD value with respect to KRAS): A (a compound having 10 or more and less than 20 is denoted as A)

## CCO[C@@H]1C[C@H]2C(=O)NC3(CC(C)(C)C3)C(=O)N(C)[C@@H](C(CC)CC)C(=O)N(C)[C@H](C(=O)N3CCCC3)CC(=O)N(C)[C@@H](COC)C(=O)N[C@@H]([C@@H](C)CC)C(=O)N(C)CC(=O)N(C)[C@H]3C/C=C\CCN(C3=O)[C@@H](Cc3ccc(C)cc3)C(=O)N(C)CC(=O)N[C@@H](CCc3ccc(C(F)(F)F)c(OC)c3)C(=O)N2C1 [PP2167]
[1]
  NRAS/KRAS (ratio of KD value with respect to NRAS to KD value with respect to KRAS): AA (a compound having 20 or more is denoted as AA)
[2]
  HRAS/KRAS (ratio of KD value with respect to HRAS to KD value with respect to KRAS): A (a compound having 10 or more and less than 20 is denoted as A)

## CCO[C@@H]1C[C@H]2C(=O)NC3(CC(C)(C)C3)C(=O)N(C)[C@@H](C(CC)CC)C(=O)N(C)[C@H](C(=O)N(C)C)CC(=O)N(C)[C@@H](CC(C)C)C(=O)N[C@@H]([C@@H](C)CC)C(=O)N(C)CC(=O)N(C)[C@H]3C/C=C\CCN(C3=O)[C@@H](Cc3ccc(C)cc3)C(=O)N(C)CC(=O)N[C@@H](CCc3ccc(C(F)(F)F)c(OC)c3)C(=O)N2C1 [PP2168]
[1]
  NRAS/KRAS (ratio of KD value with respect to NRAS to KD value with respect to KRAS): A (a compound having 10 or more and less than 20 is denoted as A)
[2]
  HRAS/KRAS (ratio of KD value with respect to HRAS to KD value with respect to KRAS): A (a compound having 10 or more and less than 20 is denoted as A)

## CCO[C@@H]1C[C@H]2C(=O)NC3(CC(C)(C)C3)C(=O)N(C)[C@@H](C(CC)CC)C(=O)N(C)[C@H](C(=O)N3CCCC3)CC(=O)N(C)[C@@H](C)C(=O)N[C@@H]([C@@H](C)CC)C(=O)N(C)CC(=O)N(C)[C@H]3C/C=C\CCN(C3=O)[C@@H](Cc3ccc(C)cc3)C(=O)N(C)CC(=O)N[C@@H](CCc3ccc(C(F)(F)F)c(OC)c3)C(=O)N2C1 [PP2169]
[1]
  NRAS/KRAS (ratio of KD value with respect to NRAS to KD value with respect to KRAS): AA (a compound having 20 or more is denoted as AA)
[2]
  HRAS/KRAS (ratio of KD value with respect to HRAS to KD value with respect to KRAS): A (a compound having 10 or more and less than 20 is denoted as A)

## CCO[C@@H]1C[C@H]2C(=O)NC3(CC(C)(C)C3)C(=O)N(C)[C@@H](C(CC)CC)C(=O)N(C)[C@H](C(=O)N(C)C)CC(=O)N(C)[C@@H](CC)C(=O)N[C@@H]([C@@H](C)CC)C(=O)N(C)CC(=O)N(C)[C@H]3C/C=C\CCN(C3=O)[C@@H](Cc3ccc(C)cc3)C(=O)N(C)CC(=O)N[C@@H](CCc3ccc(C(F)(F)F)c(OC)c3)C(=O)N2C1 [PP2170]
[1]
  NRAS/KRAS (ratio of KD value with respect to NRAS to KD value with respect to KRAS): A (a compound having 10 or more and less than 20 is denoted as A)
[2]
  HRAS/KRAS (ratio of KD value with respect to HRAS to KD value with respect to KRAS): A (a compound having 10 or more and less than 20 is denoted as A)

## CCO[C@@H]1C[C@H]2C(=O)NC3(CC(C)(C)C3)C(=O)N(C)[C@@H](C(CC)CC)C(=O)N(C)[C@H](C(=O)N3CCCC3)CC(=O)N(C)[C@@H](CC)C(=O)N[C@@H]([C@@H](C)CC)C(=O)N(C)CC(=O)N(C)[C@H]3C/C=C\CCN(C3=O)[C@@H](Cc3ccc(C)cc3)C(=O)N(C)CC(=O)N[C@@H](CCc3ccc(C(F)(F)F)c(OC)c3)C(=O)N2C1 [PP2171]
[1]
  NRAS/KRAS (ratio of KD value with respect to NRAS to KD value with respect to KRAS): A (a compound having 10 or more and less than 20 is denoted as A)
[2]
  HRAS/KRAS (ratio of KD value with respect to HRAS to KD value with respect to KRAS): A (a compound having 10 or more and less than 20 is denoted as A)

## CCO[C@@H]1C[C@H]2C(=O)NC3(CC(C)(C)C3)C(=O)N(C)[C@@H](C(CC)CC)C(=O)N(C)[C@H](C(=O)N(C)C)CC(=O)N(C)[C@@H](CC3CCC3)C(=O)N[C@@H]([C@@H](C)CC)C(=O)N(C)CC(=O)N(C)[C@H]3C/C=C\CCN(C3=O)[C@@H](Cc3ccc(C)cc3)C(=O)N(C)CC(=O)N[C@@H](CCc3ccc(C(F)(F)F)c(OC)c3)C(=O)N2C1 [PP2172]
[1]
  NRAS/KRAS (ratio of KD value with respect to NRAS to KD value with respect to KRAS): A (a compound having 10 or more and less than 20 is denoted as A)
[2]
  HRAS/KRAS (ratio of KD value with respect to HRAS to KD value with respect to KRAS): B (a compound having 3 or more and less than 10 is denoted as B)

## CCO[C@@H]1C[C@H]2C(=O)NC3(CC(C)(C)C3)C(=O)N(C)[C@@H](C(CC)CC)C(=O)N(C)[C@H](C(=O)N(C)C)CC(=O)N(C)[C@@H](C(C)C)C(=O)N[C@@H]([C@@H](C)CC)C(=O)N(C)CC(=O)N(C)[C@H]3C/C=C\CCN(C3=O)[C@@H](Cc3ccc(C)cc3)C(=O)N(C)CC(=O)N[C@@H](CCc3ccc(C(F)(F)F)c(OC)c3)C(=O)N2C1 [PP2173]
[1]
  NRAS/KRAS (ratio of KD value with respect to NRAS to KD value with respect to KRAS): A (a compound having 10 or more and less than 20 is denoted as A)
[2]
  HRAS/KRAS (ratio of KD value with respect to HRAS to KD value with respect to KRAS): A (a compound having 10 or more and less than 20 is denoted as A)

## CCO[C@@H]1C[C@H]2C(=O)NC3(CC(C)(C)C3)C(=O)N(C)[C@@H](C(CC)CC)C(=O)N(C)[C@H](C(=O)N3CCCC3)CC(=O)N(C)[C@@H](COC)C(=O)N[C@@H]([C@@H](C)CC)C(=O)N(C)CC(=O)N(C)[C@H]3C/C=C\CCN(C3=O)[C@@H](Cc3ccc(C(F)(F)F)cc3)C(=O)N(C)CC(=O)N[C@@H](CCc3ccc(Cl)c(Cl)c3)C(=O)N2C1 [PP2174]
[1]
  NRAS/KRAS (ratio of KD value with respect to NRAS to KD value with respect to KRAS): AA (a compound having 20 or more is denoted as AA)
[2]
  HRAS/KRAS (ratio of KD value with respect to HRAS to KD value with respect to KRAS): A (a compound having 10 or more and less than 20 is denoted as A)

## CCC[C@H]1C(=O)N[C@@H]([C@@H](C)CC)C(=O)N(C)CC(=O)N(C)[C@H]2C/C=C\CCN(C2=O)[C@@H](Cc2ccc(C(F)(F)F)cc2)C(=O)N(C)CC(=O)N[C@@H](CCc2ccc(Cl)c(Cl)c2)C(=O)N2C[C@H](OCC)C[C@H]2C(=O)NC2(CC(C)(C)C2)C(=O)N(C)[C@@H](C(CC)CC)C(=O)N(C)[C@H](C(=O)N(C)C)CC(=O)N1C [PP2175]
[1]
  NRAS/KRAS (ratio of KD value with respect to NRAS to KD value with respect to KRAS): AA (a compound having 20 or more is denoted as AA)
[2]
  HRAS/KRAS (ratio of KD value with respect to HRAS to KD value with respect to KRAS): A (a compound having 10 or more and less than 20 is denoted as A)
